SMILES strings stand for the structures. “And” between values parts separate entries of the source, which are not always exact repeats. Identical values can stand only once. Like-named read-outs stand apart in the source and are kept apart here.

In data set [1] the test system is kunjin virus. Nature of the data set: microbe, parasite or virus in culture. The class given is cell-based. Particulars: West Nile virus.
Data set [2] has as its system vesicular stomatitis virus. Nature of the data set: microbe, parasite or virus in culture.
Data set [3] has as its system kunjin virus. The class given is cell-based.
In data set [4] the test system is dengue virus. Nature of the data set: microbe, parasite or virus in culture. It counts as cell-based. Particulars: Vero.
The test system of data set [5] is yellow fever virus. Nature of the data set: microbe, parasite or virus in culture.
Data set [6] concerns yellow fever virus. The class given is cell-based.
In data set [7] the test system is hepatitis C. As to conditions: patients with chronic hepatitis C; in combination with interferon; cited from earlier work.
The subject of data set [8] is yellow fever virus. Nature of the data set: in vitro.
For data set [9], the system named is vesicular stomatitis virus. Put plainly: in vitro. Particulars: human.
For data set [10], the system named is dengue virus. It counts as cell-based.
Data set [11] relates to respiratory syncytial virus. Nature of the data set: microbe, parasite or virus in culture. It counts as cell-based. Particulars: human respiratory syncytial virus, Vero, read-out: ED50 RSV VERO.
The test system of data set [12] is VSV. The class given is cell-based, vesicular stomatitis virus.

Turning to `Cc1nc2c(n1-c1ccc(Br)cc1)C(=O)c1ccccc1C2=O` [BNID, 1-(p-bromophenyl)-2-methyl-1H-naphth[2,3-d]imidazole-4,9-dione], the EC50 in data set [1] (Huh-7, read-out: ED50) worked out at 1150 nM; in data set [1] (Vero, read-out: ED50), 1050 nM; in [2] (Huh-7, read-out: ED50) it was 640 nM; in data set [4] (read-out: ED50), 1250 nM; in data set [5] (Huh-7, read-out: ED50), 1150 nM; in [5] (Vero, read-out: ED50) it was 1250 nM. In addition, the Fold enhancement was 6 fold in data set [3]; 10 fold and 5 fold in [6].
As for `COc1cc(-c2ccc(Nc3ccccc3C(=O)O)c(OC)c2)ccc1Nc1ccccc1C(=O)O` [Redoxal], the EC50 in data set [1] (Huh-7, read-out: ED50) turned out to be 520 nM; in [1] (Vero, read-out: ED50), 390 nM; in data set [2] (Huh-7, read-out: ED50), 630 nM; in data set [4] (read-out: ED50), 390 nM; in data set [5] (Huh-7, read-out: ED50) it was 630 nM; in data set [5] (Vero, read-out: ED50), 250 nM.
With `O=C(O)c1cc(-c2ccc(C3CCCCC3)cc2)nc2ccc(OC(F)(F)F)cc12` [I2K46, 2-(4-cyclohexylphenyl)-6-trifluoromethoxy-quinoline-4-carboxylic acid], the EC50 in data set [1] (Huh-7, read-out: ED50 KUN HuH7) turned out to be 6300 nM; in [5] (Huh-7, read-out: ED50 YFV HuH7) it was 5100 nM.
`Cc1c(-c2ccc(-c3ccccc3)cc2)nc2ccc(OC(F)(F)F)cc2c1C(=O)O` [I2K55, 2-(4-biphenylyl)-3-methyl-6-trifluoromethoxy-quinoline-4-carboxylic acid]: the EC50 in data set [1] (Huh-7, read-out: ED50 KUN HuH7) came to 5800 nM; in [4] (read-out: ED50 DEN VERO), 11800 nM; in data set [5] (Huh-7, read-out: ED50 YFV HuH7), 6100 nM; in data set [5] (Vero, read-out: ED50 YFV VERO) it was 11800 nM.
With `O=C(O)c1cc(-c2ccc(-c3ccccc3)cc2)nc2ccc(OC(F)(F)F)cc12` [I2K5, 2-(4-biphenylyl)-6-trifluoromethoxy-quinoline-4-carboxylic acid], the EC50 was determined as 2000 nM in data set [1] (Huh-7, read-out: ED50 KUN HuH7); 800 nM in data set [4] (read-out: ED50 DEN VERO); 1700 nM in data set [5] (Huh-7, read-out: ED50 YFV HuH7); 800 nM in data set [5] (Vero, read-out: ED50 YFV VERO). For the same compound, the Fold enhancement in [6] was determined as 3 fold.
`COc1c(-c2cc(C(=O)O)c3cc(OC(F)(F)F)ccc3n2)ccc(OCc2ccccc2)c1C` [I2K51, 2-(4-benzyloxy-2-methoxy-3-methyl-phenyl)-6-trifluoromethoxy-quinoline-4-carboxylic acid]: the EC50 was determined as 2600 nM in data set [4] (read-out: ED50 DEN VERO) and 1300 nM in [5] (Vero, read-out: ED50 YFV VERO).
Regarding `O=C(O)c1cc(-c2ccc(Oc3ccccc3)cc2)nc2ccc(OC(F)(F)F)cc12` [I2K52, 2-(4-phenoxyphenyl)-6-trifluoromethoxy-quinoline-4-carboxylic acid], the EC50 was found to be 9600 nM in data set [1] (Huh-7, read-out: ED50 KUN HuH7) and 11300 nM in [5] (Huh-7, read-out: ED50 YFV HuH7).
With `O=C1C(O)=C(CC=C(Cl)Cl)C(=O)c2ccccc21` [Dichloroallyl lawsone, dichloroallyl lawsone], the EC50 in [1] (Huh-7, read-out: ED50) was 780 nM; in [2] (Huh-7, read-out: ED50) it was 490 nM; in [5] (Huh-7, read-out: ED50), 1100 nM; in data set [5] (Vero, read-out: ED50) it was 900 nM.
Turning to `NC(=O)c1ncn([C@@H]2O[C@H](CO)[C@@H](O)[C@H]2O)n1` [Ribavirin], the EC50 in [1] (Huh-7, read-out: ED50) worked out at 60000 nM; in [1] (Vero, read-out: ED50), 309000 nM; in data set [2] (Huh-7, read-out: ED50), 250000 nM; in data set [2] (MRC5, read-out: ED50), 120000 nM; in data set [4] (read-out: ED50) it was 320000 nM; in data set [5] (Huh-7, read-out: ED50), 34000 nM. In addition, the EC50 in data set [5] (Vero, read-out: ED50) stood at 205000 nM. In data set [7], the combined treatment efficacy result was “up to 40%”. In addition, the selectivity ratio in data set [8] (human) came to 70; in [8] (monkey) it was 36.
As for `Cc1c(-c2ccc(-c3ccccc3F)cc2)nc2ccc(F)cc2c1C(=O)[O-].[Na+]` [Brequinar, 6-fluoro-2-(2′-fluoro-1,1′-biphenyl-4-yl)-3-methyl-4′-quinolinecarboxylic acid sodium salt], the EC50 turned out to be 30 nM in data set [1] (Huh-7, read-out: ED50); 40 nM in data set [1] (Huh-7, read-out: ED50 KUN HuH7); 20 nM in [1] (Vero, read-out: ED50); 14 nM in [2] (Huh-7, read-out: ED50); 80 nM in data set [2] (Huh-7, read-out: ED50 VSV HuH7); 20 nM in [4] (read-out: ED50). The EC50 in [4] (read-out: ED50 DEN VERO) stood at 40 nM; in [5] (Huh-7, read-out: ED50), 50 nM; in data set [5] (Huh-7, read-out: ED50 YFV HuH7), 30 nM; in [5] (Vero, read-out: ED50), 20 nM; in data set [5] (Vero, read-out: ED50 YFV VERO), 20 nM; in [11], 20 nM. Further, the selectivity ratio in data set [9] came to 2100; in [8] (human) it was 60; in [8] (monkey), 2670. Further, the Fold enhancement in data set [3] is recorded as 4.5 fold; in data set [10], 10 fold; in data set [12], 266 fold.
